*1 amine or outer side, *2 acyl side, *3 side chain or, on linkers, in order; H or OH if unused. Where a SMILES comes first, the peptide text is derived from it. Side-chain parts run from the residue outwards. [ ]: non-standard residue; d: D form. The star is where a group is joined. C18 diacid = O=C(O)CCCCCCCCCCCCCCCCC(=O)*; γGlu = O=C(O)[C@H](CCC(=O)[*:2])N[*:1]; AEEA = NCCOCCOCC(=O)O; Aib = CC(C)(N)C(=O)O
What follows are compounds tested against T1, human glucagon-like peptide 1 receptor (GLP-1R) (Homo sapiens, UniProt P43220) (assay: GLP-1 receptor efficacy assay (cAMP AlphaScreen, CHO cells)). Conditions: EC50 [GLP-1R] / EC50 [Glucagon-R], human receptors in CHO-K1.
T1 construct: expressed in transfected cells
T1 sequence (P43220 24-463): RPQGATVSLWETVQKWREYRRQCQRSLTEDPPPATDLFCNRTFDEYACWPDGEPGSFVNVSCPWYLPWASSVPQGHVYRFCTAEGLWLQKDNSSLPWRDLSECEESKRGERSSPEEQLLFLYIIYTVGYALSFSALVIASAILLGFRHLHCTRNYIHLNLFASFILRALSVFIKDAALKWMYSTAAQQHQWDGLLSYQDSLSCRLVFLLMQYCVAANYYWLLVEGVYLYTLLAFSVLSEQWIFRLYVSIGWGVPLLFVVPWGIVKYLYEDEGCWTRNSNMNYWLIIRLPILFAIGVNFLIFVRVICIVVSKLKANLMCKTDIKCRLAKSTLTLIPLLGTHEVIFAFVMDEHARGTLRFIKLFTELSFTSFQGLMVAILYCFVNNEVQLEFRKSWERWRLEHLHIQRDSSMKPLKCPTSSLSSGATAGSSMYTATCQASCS
Assay type: cell-based
Text: The cDNA encoding either the human glucagon receptor (Glucagon-R) (primary accession number P47871) or the human glucagon-like peptide 1 receptor (GLP-1R) (primary accession number P43220) were synthesized and cloned into a mammalian expression vector containing a Zeocin resistance marker.
The mammalian expression vectors encoding the Glucagon-R or the GLP-1-R were transfected into Chinese hamster ovary (CHO) cells by the Attractene method. Stably expressing clones were obtained by Zeocin selection (250 μg/mL) upon limited dilution of cells resistant to the selection pressure. Glucagon-R and GLP-1-R cell clones expressing were picked, propagated and tested in the Glucagon-R and GLP-1-R efficacy assays as described below. One Glucagon-R expressing clone and one GLP-1-R expressing clone were chosen for compound profiling.
CHO cells expressing the human Glucagon-R, or human GLP-1-R were seeded 24 hours prior to the assay at 30,000 cells per well in 96-well microtiter plates in culture in 100 μl growth medium. On the day of analysis, growth medium was removed and the cells were washed once with 200 μl of assay buffer (Krebs-Ringer-buffer—KRBH). The buffer was removed and the cells were incubated for 15 min at room temperature in 10 μl KRBH (KRBH+10 mM HEPES, 5 mM NaHCO3, 0.1% (V/V) BSA) with 0.1 mM IBMX in deionized water containing increasing concentrations of test peptides. The reaction was stopped by the addition of lysis buffer (0.1% w/v BSA, 5 mM HEPES, 0.3% v/v Tween-20). After cell lysis for 10 min at room temperature, lysates were transferred to 384-well plates and 10 μl of acceptor/donorbead mixture as contained in the AlphaScreen™ cAMP Functional Assay Kit was added. After one hour of incubation at room temperature in the dark, the cAMP content was determined applying the AlphaScreen™ cAMP Functional Assay Kit from Perkin-Elmer according to manufacturer instructions. EC50 and relative efficacies compared to reference compounds (glucagon and GLP-1) were calculated applying computer aided curve fitting. The GLP-1/glucagon ratio is calculated as defined earlier.

Structure (SMILES) | Ratio GLP-1/Glucagon
CC[C@H](C)[C@H](NC(=O)[C@H](Cc1ccccc1)NC(=O)[C@H](CC(=O)O)NC(=O)[C@H](Cc1c[nH]cn1)NC(=O)[C@H](C)NC(=O)[C@H](C)NC(=O)[C@H](CCCNC(=N)N)NC(=O)[C@H](CCCCNC(=O)COCCOCCNC(=O)COCCOCCNC(=O)CC[C@H](NC(=O)CCCCCCCCCCCCCCCCC(=O)O)C(=O)O)NC(=O)[C@H](CCC(=O)O)NC(=O)[C@H](CC(C)C)NC(=O)[C@H](Cc1ccc(O)cc1)NC(=O)[C@H](CCCCN)NC(=O)[C@H](CO)NC(=O)[C@H](Cc1ccc(O)cc1)NC(=O)[C@H](CC(=O)O)NC(=O)[C@H](CO)NC(=O)[C@@H](NC(=O)[C@H](Cc1ccccc1)NC(=O)[C@@H](NC(=O)CNC(=O)[C@H](CCC(N)=O)NC(=O)C(C)(C)NC(=O)[C@@H](N)Cc1c[nH]cn1)[C@@H](C)O)[C@@H](C)O)C(=O)N[C@@H](CCC(=O)O)C(=O)N[C@@H](Cc1c[nH]c2ccccc12)C(=O)N[C@@H](CC(C)C)C(=O)N[C@@H](CCC(=O)O)C(=O)N[C@@H](CO)C(=O)N[C@@H](C)C(N)=O [Compound 8, H-H-Aib-QGTFTSDYSKYLE-K([17-carboxy-heptadecanoyl]-isoGlu-Peg3-Peg3)-RAAHDFIEWLESA-NH2] (H-H[Aib]QGTFTSDYSKYLEK([AEEA-AEEA-γGlu-C18 diacid])RAAHDFIEWLESA-NH2) | 2.58
CC[C@H](C)[C@H](NC(=O)[C@H](Cc1ccccc1)NC(=O)[C@H](CC(=O)O)NC(=O)[C@H](CCCCN)NC(=O)[C@H](C)NC(=O)[C@H](C)NC(=O)[C@H](CCCNC(=N)N)NC(=O)[C@H](CCC(=O)O)NC(=O)[C@H](CC(=O)O)NC(=O)[C@H](CC(C)C)NC(=O)[C@H](Cc1ccc(O)cc1)NC(=O)[C@H](CCCCN)NC(=O)[C@H](CO)NC(=O)[C@H](Cc1ccc(O)cc1)NC(=O)[C@H](CC(=O)O)NC(=O)[C@H](CO)NC(=O)[C@@H](NC(=O)[C@H](Cc1ccccc1)NC(=O)[C@@H](NC(=O)CNC(=O)[C@H](CCC(N)=O)NC(=O)C1(NC(=O)[C@@H](N)Cc2c[nH]cn2)CCC1)[C@@H](C)O)[C@@H](C)O)C(=O)N[C@@H](CCCCNC(=O)CNC(=O)CNC(=O)[C@H](CO)NC(=O)CNC(=O)[C@H](CO)NC(=O)CNC(=O)CC[C@H](NC(=O)CCCCCCCCCCCCCCCCC(=O)O)C(=O)O)C(=O)N[C@@H](Cc1c[nH]c2ccccc12)C(=O)N[C@@H](CC(C)C)C(=O)N[C@@H](CCC(=O)O)C(=O)N[C@@H](CO)C(=O)N[C@@H](C)C(N)=O [Compound 13] | 0.63
CC[C@H](C)[C@H](NC(=O)[C@H](Cc1ccccc1)NC(=O)[C@H](CC(=O)O)NC(=O)[C@H](CCCCN)NC(=O)[C@H](C)NC(=O)[C@H](C)NC(=O)[C@H](CCCNC(=N)N)NC(=O)[C@H](CCC(=O)O)NC(=O)[C@H](CC(=O)O)NC(=O)[C@H](CC(C)C)NC(=O)[C@H](Cc1ccc(O)cc1)NC(=O)[C@H](CCCCN)NC(=O)[C@H](CO)NC(=O)[C@H](Cc1ccc(O)cc1)NC(=O)[C@H](CC(=O)O)NC(=O)[C@H](CO)NC(=O)[C@@H](NC(=O)[C@H](Cc1ccccc1)NC(=O)[C@@H](NC(=O)CNC(=O)[C@H](CCC(N)=O)NC(=O)C1(NC(=O)[C@@H](N)Cc2c[nH]cn2)CCC1)[C@@H](C)O)[C@@H](C)O)C(=O)N[C@@H](CCC(=O)O)C(=O)N[C@@H](Cc1c[nH]c2ccccc12)C(=O)N[C@@H](CC(C)C)C(=O)N[C@@H](CCC(=O)O)C(=O)N[C@@H](CCCCNC(=O)CNC(=O)CNC(=O)[C@H](CO)NC(=O)CNC(=O)[C@H](CO)NC(=O)CNC(=O)CC[C@H](NC(=O)CCCCCCCCCCCCCCCCC(=O)O)C(=O)O)C(=O)N[C@@H](C)C(N)=O [Compound 15] | 0.65

Source: patent US12473339B2, “Acylated glucagon analogues” (Zealand Pharma A/S, priority 2013, dated 2025)
